Measurements: US8278268B2, “Combination therapy comprising glucose reabsorption inhibitors and PPAR modulators” (Ortho-McNeil Pharmaceutical, Inc., priority 2001, dated 2012)
Read-outs that look alike come from different tables or passages of the source.

Legend:
SGLT2 (SAAT1) = settings: cited from earlier work; for Km: for D-glucose
SGLT1 = SGLT1 (Homo sapiens, UniProt P13866); settings: read-out: Km in vitro; Sm. Intestine; stoichiometry 2:1; for D-glucose; cited from earlier work
SGLT in the kidney = settings: cited from earlier work
SGLT-2 in the kidney = molecular target: T1, SGLT-2 in the kidney (Homo sapiens, UniProt P31639); settings: compared with T-1095; cited from earlier work
T1 sequence (P31639 1-672): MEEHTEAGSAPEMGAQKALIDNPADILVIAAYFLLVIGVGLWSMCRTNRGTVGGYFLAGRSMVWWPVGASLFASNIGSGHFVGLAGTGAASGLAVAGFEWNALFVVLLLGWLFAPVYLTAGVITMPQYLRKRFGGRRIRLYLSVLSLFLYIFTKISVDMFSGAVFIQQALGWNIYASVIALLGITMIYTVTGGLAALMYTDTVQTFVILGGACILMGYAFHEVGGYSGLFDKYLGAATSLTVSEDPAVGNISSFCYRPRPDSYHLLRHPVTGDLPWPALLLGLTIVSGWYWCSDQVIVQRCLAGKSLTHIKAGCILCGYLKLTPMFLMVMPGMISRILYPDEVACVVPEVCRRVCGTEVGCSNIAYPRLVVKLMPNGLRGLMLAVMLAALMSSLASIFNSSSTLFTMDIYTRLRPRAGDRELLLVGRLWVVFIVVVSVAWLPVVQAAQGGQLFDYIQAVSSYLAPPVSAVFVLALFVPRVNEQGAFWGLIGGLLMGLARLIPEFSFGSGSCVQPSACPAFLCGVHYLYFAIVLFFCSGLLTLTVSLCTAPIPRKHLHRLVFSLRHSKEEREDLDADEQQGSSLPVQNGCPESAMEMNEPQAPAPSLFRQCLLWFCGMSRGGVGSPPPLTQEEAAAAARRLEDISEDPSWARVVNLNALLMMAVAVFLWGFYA

[1] = tested on: Na^+-glucose co-transporters located in chorionic membrane of the intestine and the kidney; settings: cited from earlier work
[2] = subcutaneous daily administration; cited from earlier work
female db/db mice [3] = experiment: Example 1: 11 day oral dosing of rosiglitazone +/− T-1095 in db/db mice; assay type: in vivo; settings: mean
Experimental: (§1) Mice (n=8 animals/group) received the test compounds or vehicle by oral gavage in a volume of 10 ml/kg of body weight. Body weight was recorded on day 1, prior to dosing, and days 4, 8 and 11. Eighteen hours after the final dose, mice were weighed and anesthetized with CO2/O2 (70:30). Mice were then bled by retro-orbital sinus puncture into 2 mL heparinized polypropylene tubes on ice.
Plasma samples were then assayed for glucose, insulin, and triglycerides using Trinder reagent (Sigma Diagnostics), Elisa (Alpco) and GPO-Trinder (Sigma Diagnostics), respectively.
(§2) Livers were excised, weighed and frozen. […] Heart weight can be measured in an analogous manner.

female db/db mice [4] = experiment: Example 2: 11 day oral dosing of T-1095 +/− rosiglitazone in db/db mice; assay type: in vivo; settings: for Body Weight Change / Liver Weight: −Rosi, mean
Experimental: as §1, with “ice. Plasma samples were then assayed for glucose, insulin, and triglycerides using Trinder reagent (Sigma Diagnostics), Elisa (Alpco) and GPO-Trinder (Sigma Diagnostics), respectively. Livers and hearts were excised, weighed and frozen.” for “ice.”
as §2

db/db mice [5] = experiment: Example 4: 32 day oral dosing of T-1095 +/− MCC-555 in db/db mice; assay type: in vivo; settings: 32 day oral dosing
Experimental: (§3) To examine the effect of T-1095 in combination with a PPARγ agonist, male db/db mice (6 weeks of age/Jackson Labs, […]), a PPARγ agonist such as MCC-555 (3 mg/kg-30 mg/kg), T-1095 (3-100 mg/kg), or MCC-555 plus T-1095. Mice (n=8 animals/group) received the test compounds or vehicle by oral gavage in a volume of 10 ml/kg of body weight. Body weight was recorded on day 1, prior to dosing, and twice a week for the duration of the study. One hour after the final dose, mice were weighed and anesthetized with CO2/O2 (70:30). Mice were then bled by retro-orbital sinus puncture into 2 mL heparinized polypropylene tubes on ice. Mice were then fasted overnight and bled by tail-clip prior to receiving a glucose challenge (2 g/kg p.o). Blood was collected at 30, 60.120, and 180 minutes after the challenge. Animals were then sacrificed and epididymal fat pads, livers, and hearts were excised, weighed and frozen for histological examination. Plasma samples were then assayed for glucose, HbA1c, insulin, and triglycerides.
Livers and hearts were excised, weighed and frozen.

db/db mice [6] = experiment: Example 4: plasma glucose AUC following an oral glucose challenge; assay type: in vivo
Experimental: as §3

[7] = tested on: diabetic rodent models (STZ-induced diabetic rat, yellow KK mice, db/db mice, Zucker Diabetic Fatty rats and GK rats); settings: cited from earlier work

Sequence of SGLT1 (P13866 whole entry, species assumed): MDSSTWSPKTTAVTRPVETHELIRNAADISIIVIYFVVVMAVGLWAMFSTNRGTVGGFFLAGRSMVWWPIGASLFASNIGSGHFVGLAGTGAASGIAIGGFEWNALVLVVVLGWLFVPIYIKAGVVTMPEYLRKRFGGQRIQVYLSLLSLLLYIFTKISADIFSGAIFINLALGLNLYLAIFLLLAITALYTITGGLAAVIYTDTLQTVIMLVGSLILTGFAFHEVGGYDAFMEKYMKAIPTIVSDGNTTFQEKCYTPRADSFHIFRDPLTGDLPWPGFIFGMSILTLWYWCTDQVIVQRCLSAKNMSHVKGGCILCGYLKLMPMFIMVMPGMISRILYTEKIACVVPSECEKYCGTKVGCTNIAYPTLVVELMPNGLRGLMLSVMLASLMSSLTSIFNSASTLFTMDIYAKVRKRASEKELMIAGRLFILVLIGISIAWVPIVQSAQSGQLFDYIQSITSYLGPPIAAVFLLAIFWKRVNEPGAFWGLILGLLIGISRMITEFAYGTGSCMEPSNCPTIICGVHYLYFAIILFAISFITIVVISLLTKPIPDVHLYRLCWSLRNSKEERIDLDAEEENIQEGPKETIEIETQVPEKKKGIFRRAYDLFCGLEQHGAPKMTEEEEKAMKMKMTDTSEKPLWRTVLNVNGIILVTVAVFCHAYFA

Which results are given for O=C[C@H](O)[C@@H](O)[C@H](O)[C@H](O)CO [D-glucose]?
TmG in vitro (maximal transport rate) (SGLT2 (SAAT1); Kidney (S1, S3), stoichiometry 2:1): 7.9 pmol/min/mm; Km (SGLT2 (SAAT1); Kidney (S1, S3), stoichiometry 2:1, read-out: Km in vitro): 390 µM; Km (SGLT2 (SAAT1); Kidney (S1, S3), stoichiometry 2:1, read-out: Km in vivo): 300 µM; TmG in vitro (maximal transport rate) (SGLT2 (SAAT1); Kidney (S3), stoichiometry 1:1): 83 pmol/min/mm; Km (SGLT2 (SAAT1); Kidney (S3), stoichiometry 1:1, read-out: Km in vitro): 1640 µM; Km (SGLT2 (SAAT1); Kidney (S3), stoichiometry 1:1, read-out: Km in vivo): 6000 µM; Km (SGLT1): 100 µM

Which “inhibition of SGLT in the kidney” value (SGLT in the kidney) does the source give for Cc1cc(O)c(C(=O)CCc2ccc3occc3c2)c(OC2OC(CO)C(O)C(O)C2O)c1 (centres unmarked) [T-1095A] here?
The value was “selective and potent inhibitor of SGLT in the kidney”.

And the “inhibition of SGLT-2 in the kidney” value (SGLT-2 in the kidney)?
The value was “also a better substrate for the inhibition of SGLT-2 in the kidney”.

For O=C(CCc1ccc(O)cc1)c1c(O)cc(O)cc1O[C@@H]1O[C@H](CO)[C@@H](O)[C@H](O)[C@H]1O [phlorizin], which “inhibition of Na+-glucose co-transporters” value [1] is on record?
The value was “inhibits Na^+-glucose co-transporters”.

And the plasma glucose level [2]?
Its plasma glucose level is “the glucose level in a plasma is controlled at a normal level for a long time”.

Which results are given for COC(=O)OCC1OC(Oc2cc(C)cc(O)c2C(=O)CCc2ccc3occc3c2)C(O)C(O)C1O (centres unmarked) [T-1095]?
Body Weight Change (female db/db mice [3]; T1095 100 mpk): 3.96 g; Liver Weight (female db/db mice [3]; T1095 100 mpk): 1.88 g; Glucose (female db/db mice [3]; T-1095 100 mpk): ***405.13 mg/dL; Insulin (female db/db mice [3]; T-1095 100 mpk): 93.88 ng/mL; TG (female db/db mice [3]; T-1095 100 mpk): 248.88 mg/dL; Glucose (female db/db mice [4]; 3 mpk T-1095, mean): 286 mg/dL; Insulin (female db/db mice [4]; 3 mpk T-1095, mean): **22.5 ng/ml; TG (female db/db mice [4]; 3 mpk T-1095, mean): 263 mg/dL; Glucose (female db/db mice [4]; 10 mpk T-1095, mean): **263 mg/dL; Insulin (female db/db mice [4]; 10 mpk T-1095, mean): 30.1 ng/mL; TG (female db/db mice [4]; 10 mpk T-1095, mean): 256 mg/dL; Glucose (female db/db mice [4]; 30 mpk T-1095, mean): 370 mg/dL; Insulin (female db/db mice [4]; 30 mpk T-1095, mean): 23.9 ng/mL; TG (female db/db mice [4]; 30 mpk T-1095, mean): 315 mg/dL; Glucose (female db/db mice [4]; 100 mpk T-1095, mean): **242 mg/dL; Insulin (female db/db mice [4]; 100 mpk T-1095, mean): 49.1 ng/mL; TG (female db/db mice [4]; 100 mpk T-1095, mean): **243 mg/dL; Body Weight Change (female db/db mice [4]; T-1095 3 mpk): 3.0 g; Liver Weight (female db/db mice [4]; T-1095 3 mpk): 1.63 g; Body Weight Change (female db/db mice [4]; T-1095 10 mpk): 4.3 g; Liver Weight (female db/db mice [4]; T-1095 10 mpk): 1.87 g; Body Weight Change (female db/db mice [4]; T-1095 30 mpk): 2.4 g; Liver Weight (female db/db mice [4]; T-1095 30 mpk): 1.75 g; Body Weight Change (female db/db mice [4]; T-1095 100 mpk): 2.3 g; Liver Weight (female db/db mice [4]; T-1095 100 mpk): 1.73 g; % HbA1C +/− SEM (db/db mice [5]; 3 mpk T-1095): 6.10 ± 0.16%; Body Weight Change (g) ± SEM (db/db mice [5]; 3 mpk T-1095): -6.09 ± 1.9 g; Glucose (db/db mice [5]; 3 mpk T-1095): 490.3 ± 36 mg/dL; Heart Weight (g) ± SEM (db/db mice [5]; 3 mpk T-1095): 0.16 ± 0.02 g; Insulin (db/db mice [5]; 3 mpk T-1095): 10.7 ± 2.2 ng/dL; Liver Weight (g) ± SEM (db/db mice [5]; 3 mpk T-1095): 1.51 ± 0.1 g; TG (db/db mice [5]; 3 mpk T-1095): 210.90 ± 24 mg/dL; % HbA1C +/− SEM (db/db mice [5]; 10 mpk T-1095): 6.00 ± 0.29%; Body Weight Change (g) ± SEM (db/db mice [5]; 10 mpk T-1095): -0.99 ± 1.9 g; Glucose (db/db mice [5]; 10 mpk T-1095): 413.1 ± 50 mg/dL; Heart Weight (g) ± SEM (db/db mice [5]; 10 mpk T-1095): 0.13 ± 0.01 g; Insulin (db/db mice [5]; 10 mpk T-1095): 11.4 ± 3.8 ng/dL; Liver Weight (g) ± SEM (db/db mice [5]; 10 mpk T-1095): 1.58 ± 0.08 g; TG (db/db mice [5]; 10 mpk T-1095): 178.10 ± 21 mg/dL; % HbA1C +/− SEM (db/db mice [5]; 30 mpk T-1095): 5.38 ± 0.23%; Body Weight Change (g) ± SEM (db/db mice [5]; 30 mpk T-1095): -2.44 ± 4.3 g; Glucose (db/db mice [5]; 30 mpk T-1095): 380.6 ± 40 mg/dL; Heart Weight (g) ± SEM (db/db mice [5]; 30 mpk T-1095): 0.14 ± 0.01 g; Insulin (db/db mice [5]; 30 mpk T-1095): 17.7 ± 5.1 ng/dL; Liver Weight (g) ± SEM (db/db mice [5]; 30 mpk T-1095): 1.57 ± 0.09 g; TG (db/db mice [5]; 30 mpk T-1095): 197.20 ± 26 mg/dL; % HbA1C +/− SEM (db/db mice [5]; 100 mpk T-1095): 4.96 ± 0.24 %; Body Weight Change (g) ± SEM (db/db mice [5]; 100 mpk T-1095): -4.83 ± 2.9 g; Glucose (db/db mice [5]; 100 mpk T-1095): 367.2 ± 42 mg/dL; Heart Weight (g) ± SEM (db/db mice [5]; 100 mpk T-1095): 0.14 ± 0.01 g; Insulin (db/db mice [5]; 100 mpk T-1095): 25.5 ± 6.2 ng/dL; Liver Weight (g) ± SEM (db/db mice [5]; 100 mpk T-1095): 1.64 ± 0.11 g; TG (db/db mice [5]; 100 mpk T-1095): 151.20 ± 17 mg/dL; AUC glucose % of Vehicle ± SEM (db/db mice [6]; 3 mpk T-1095, 32 day oral dosing): 95.75 ± 8.45 % of Vehicle; AUC glucose % of Vehicle ± SEM (db/db mice [6]; 10 mpk T-1095, 32 day oral dosing): 76.6 ± 6.85 % of Vehicle; AUC glucose % of Vehicle ± SEM (db/db mice [6]; 30 mpk T-1095, 32 day oral dosing): 73.69 ± 5.7 % of Vehicle; AUC glucose % of Vehicle ± SEM (db/db mice [6]; 100 mpk T-1095, 32 day oral dosing): 49.1 ± 3.21 % of Vehicle; pro-drug conversion ([7]; in vivo, liver): converted to its active form T-1095A in the liver; oral glucose tolerance test and hyperinsulinemic euglycemic clamp ([7]; in vivo, po): improvement of glucose tolerance and the reduction of insulin resistance; adverse signs during treatment ([7]; in vivo): no observed sign of adding weight, infection in the urinary tracts, electrolyte imbalance in plasma, changes in food intake, acute hypoglycemic shock nor pathological changes in the kidney; elevated blood glucose levels ([7]; oral administration, rodent models of IDDM and NIDDM): suppress elevated blood glucose levels; fed and fasting blood glucose levels and HbA1c ([7]; treatment for 3 weeks to 6 months, diabetic rodent models): reduced both fed and fasting blood glucose levels and HbA1c; hyperinsulinemia, hypertriglyceridemia, microalbuminuria ([7]; yellow KK mice and other diabetic mice models): decrease in the hyperinsulinemia, hypertriglyceridemia, and the development of microalbuminuria
